Results on two molecules are retold here after EP4223292A1, “PHARMACEUTICAL COMBINATIONS FOR TREATING CANCER” (Cellestia Biotech AG, priority 2022, dated 2023).

The assay concerns Human TNBC cell line HCC1187. Kind of assay: In vivo efficacy study, tumor growth delay of subcutaneous HCC1187 xenograft. The arrangement: species or system NSG mice. The following applies: for TGD compared to control (group a): endpoint ten times the initial volume (1000%), difference of MTTE versus control. The source says: Cultured cells were harvested, washed and counted. One million cells per mouse were subcutaneously transplanted into NSG mice. Animals were monitored for tumor growth. Once average tumor volume reached between 50-130 mm^3, animals were randomized for treatment with 6-(4-Tert-Butylphenoxy)Pyridin-3-Amine , Paclitaxel as single agent and 6-(4-Tert-Butylphenoxy)Pyridin-3-Amine + Paclitaxel combination. The treatment regimen was implemented as below: • a) Vehicle • b) 6-(4-Tert-Butylphenoxy)Pyridin-3-Amine single agent for 2 weeks • c) Paclitaxel single agent for 2 weeks and then monitor tumor growth without further treatment • d) 6-(4-Tert-Butylphenoxy)Pyridin-3-Amine + Paclitaxel combination for 2 weeks and then monitor tumor growth without further treatment • e) 6-(4-Tert-Butylphenoxy)Pyridin-3-Amine + Paclitaxel combination for 2 weeks and then continue treatment with 6-(4-Tert-Butylphenoxy)Pyridin-3-Amine alone as single agent and monitor tumor growth.
Tumor dimensions (L=length, W=width) were measured using a digital caliper. Tumor volume was calculated with the following formula: L^∗W^∗W/2. Tumor growth is followed as percentage of initial volume. Median Time To Endpoint (MTTE) was measured in days for an individual group to reach 1000% (10 times) the initial volume as end point. Tumor Growth Delay (TGD) was calculated as difference in days between MTTE of control and treatment groups.

Consider `CC(C)(C)c1ccc(Oc2ccc(N)cn2)cc1` [6-(4-Tert-Butylphenoxy)Pyridin-3-Amine], for which, where the note is “group b: single agent for 2 weeks”, the “TGD compared to control (group a)” value was determined as 3 days. Further, the “efficacy (in words)” value (single agent alone, HCC1187 xenograft) is “only modest efficacy”.
Turning to `CC(=O)O[C@H]1C(=O)[C@@]2(C)[C@H]([C@H](OC(=O)c3ccccc3)[C@]3(O)C[C@H](OC(=O)[C@H](O)[C@@H](NC(=O)c4ccccc4)c4ccccc4)C(C)=C1C3(C)C)[C@]1(OC(C)=O)CO[C@@H]1C[C@@H]2O` [Paclitaxel, reference compound], the “TGD compared to control (group a)” value (groups c, d: treatment for 2 weeks, then no treatment) was 21 days.
